Here are results for one compound from PMC5218480 (PLoS ONE, 2017).

This assay deals with MV-4-11 cells. As to the kind of experiment: Gene expression microarray analysis (Affymetrix PrimeView) and GSEA. In kind it is cell-based, human. On the set-up: RFU PODN (11730768_x_at) / Fold change /veh PODN (11730768_x_at) / RFU LINC00158 (11744669_a_at) / Fold change /veh LINC00158 (11744669_a_at) / RFU DUSP10 (11751237_a_at) / Fold change /veh DUSP10 (11751237_a_at) / RFU ID3 (11757404_x_at) / Fold change /veh ID3 (11757404_x_at) / RFU PLEKHG5 (11737974_s_at) / Fold change /veh PLEKHG5 (11737974_s_at) / RFU LRRC4B (11730491_at) / Fold change /veh LRRC4B (11730491_at) / RFU GIMAP4 (11747438_a_at) / Fold change /veh GIMAP4 (11747438_a_at) / RFU KRT8 (11758183_x_at) / Fold change /veh KRT8 (11758183_x_at) / RFU CNN1 (11734310_a_at) / Fold change /veh CNN1 (11734310_a_at) / RFU VPS37D (11726825_at) / Fold change /veh VPS37D (11726825_at) / RFU C10orf10 (11716522_x_at) / Fold change /veh C10orf10 (11716522_x_at) / RFU KIR2DL2 /// KIR2DL4 /// KIR2DL5A /// KIR2DL5B /// KIR2DS1 /// KIR2DS2 /// KIR2DS3 /// KIR2DS4 /// KIR3DL3 /// KIR3DL3 /// KIR3DS1 (11738374_at) / Fold change /veh KIR2DL2 /// KIR2DL4 /// KIR2DL5A /// KIR2DL5B /// KIR2DS1 /// KIR2DS2 /// KIR2DS3 /// KIR2DS4 /// KIR3DL3 /// KIR3DL3 /// KIR3DS1 (11738374_at) / RFU C1QL1 (11718748_at) / Fold change /veh C1QL1 (11718748_at) / RFU TMPRSS4 (11747572_a_at) / Fold change /veh TMPRSS4 (11747572_a_at) / RFU HAMP (11756126_x_at) / Fold change /veh HAMP (11756126_x_at) / RFU RNFT2 (11725882_a_at) / Fold change /veh RNFT2 (11725882_a_at) / RFU NR4A2 (11747474_a_at) / Fold change /veh NR4A2 (11747474_a_at) / RFU ABCC12 (11746883_a_at) / Fold change /veh ABCC12 (11746883_a_at) / RFU TMEM136 (11760407_x_at) / Fold change /veh TMEM136 (11760407_x_at) / RFU CLDN22 /// WWC2 (11732394_at) / Fold change /veh CLDN22 /// WWC2 (11732394_at) / RFU HLA-DPB1 (11760878_x_at) / Fold change /veh HLA-DPB1 (11760878_x_at) / RFU SPINT1 (11716480_a_at) / Fold change /veh SPINT1 (11716480_a_at) / RFU GAP43 (11754022_s_at) / Fold change /veh GAP43 (11754022_s_at) / RFU A4GNT (11735810_at) / Fold change /veh A4GNT (11735810_at) / RFU PRB3 (11715151_x_at) / Fold change /veh PRB3 (11715151_x_at) / RFU TUBB4B (11761932_at) / Fold change /veh TUBB4B (11761932_at) / RFU CAPN14 (11732068_a_at) / Fold change /veh CAPN14 (11732068_a_at) / RFU TMCC2 (11721928_a_at) / Fold change /veh TMCC2 (11721928_a_at) / RFU IRGQ (11745062_a_at) / Fold change /veh IRGQ (11745062_a_at) / RFU FAM174B (11720279_a_at) / Fold change /veh FAM174B (11720279_a_at) / RFU TMPRSS4 (11748680_a_at) / Fold change /veh TMPRSS4 (11748680_a_at) / RFU FAM212B (11763350_a_at) / Fold change /veh FAM212B (11763350_a_at) / RFU PLEKHG5 (11743358_a_at) / Fold change /veh PLEKHG5 (11743358_a_at) / RFU ZSCAN30 (11745921_a_at) / Fold change /veh ZSCAN30 (11745921_a_at) / RFU CMKLR1 (11741424_a_at) / Fold change /veh CMKLR1 (11741424_a_at) / RFU LOC101060620 /// MAPK8IP1 (11723275_at) / Fold change /veh LOC101060620 /// MAPK8IP1 (11723275_at) / RFU SPTSSB (11747773_x_at) / Fold change /veh SPTSSB (11747773_x_at) / RFU PRSS12 (11739890_at) / Fold change /veh PRSS12 (11739890_at) / RFU BIN1 (11741810_x_at) / Fold change /veh BIN1 (11741810_x_at) / RFU WNT11 (11732464_a_at) / Fold change /veh WNT11 (11732464_a_at) / RFU C10orf10 (11716521_a_at) / Fold change /veh C10orf10 (11716521_a_at) / RFU C5orf56 (11738089_at) / Fold change /veh C5orf56 (11738089_at) / RFU CYB561 (11721691_x_at) / Fold change /veh CYB561 (11721691_x_at) / RFU ANKRD19P (11752326_a_at) / Fold change /veh ANKRD19P (11752326_a_at) / RFU OR2T12 /// OR2T33 /// OR2T8 (11738714_s_at) / Fold change /veh OR2T12 /// OR2T33 /// OR2T8 (11738714_s_at) / RFU VCAN (11748164_a_at) / Fold change /veh VCAN (11748164_a_at) / RFU JSRP1 (11732532_at) / Fold change /veh JSRP1 (11732532_at) / RFU KRTAP10-11 (11738290_x_at) / Fold change /veh KRTAP10-11 (11738290_x_at) / RFU MYO3A (11730013_a_at) / Fold change /veh MYO3A (11730013_a_at) / RFU EBF3 (11725865_a_at) / Fold change /veh EBF3 (11725865_a_at) / RFU CAMK2N1 (11719241_x_at) / Fold change /veh CAMK2N1 (11719241_x_at) / RFU C5orf56 (11738088_a_at) / Fold change /veh C5orf56 (11738088_a_at) / RFU OLFML3 (11715873_a_at) / Fold change /veh OLFML3 (11715873_a_at) / RFU LOC100653217 /// NTM (11731650_a_at) / Fold change /veh LOC100653217 /// NTM (11731650_a_at) / RFU MAPK11 (11762145_a_at) / Fold change /veh MAPK11 (11762145_a_at) / RFU FIZ1 (11724087_x_at) / Fold change /veh FIZ1 (11724087_x_at) / RFU OASL (11726364_x_at) / Fold change /veh OASL (11726364_x_at) / RFU SOX15 (11748057_x_at) / Fold change /veh SOX15 (11748057_x_at) / RFU CD79A (11719716_a_at) / Fold change /veh CD79A (11719716_a_at) / RFU HIST1H1D (11736915_at) / Fold change /veh HIST1H1D (11736915_at) / RFU CASKIN2 (11723855_a_at) / Fold change /veh CASKIN2 (11723855_a_at) / RFU LOC730098 (11760151_x_at) / Fold change /veh LOC730098 (11760151_x_at) / RFU OR4N2 (11742367_at) / Fold change /veh OR4N2 (11742367_at) / RFU PRRT2 (11749266_a_at) / Fold change /veh PRRT2 (11749266_a_at) / RFU SNX32 (11753110_a_at) / Fold change /veh SNX32 (11753110_a_at) / RFU CDHR5 (11726645_a_at) / Fold change /veh CDHR5 (11726645_a_at) / RFU RCAN1 (11760418_a_at) / Fold change /veh RCAN1 (11760418_a_at) / RFU FAM167A (11723789_a_at) / Fold change /veh FAM167A (11723789_a_at) / RFU FAM26E (11764081_at) / Fold change /veh FAM26E (11764081_at) / RFU ISYNA1 (11749810_s_at) / Fold change /veh ISYNA1 (11749810_s_at) / RFU ACY1 (11761880_at) / Fold change /veh ACY1 (11761880_at) / RFU 11764098_at / Fold change /veh 11764098_at / RFU SAMD14 (11745864_x_at) / Fold change /veh SAMD14 (11745864_x_at) / RFU NPB (11741838_a_at) / Fold change /veh NPB (11741838_a_at) / RFU TMPRSS6 (11731388_a_at) / Fold change /veh TMPRSS6 (11731388_a_at) / RFU KRTAP10-2 (11738614_at) / Fold change /veh KRTAP10-2 (11738614_at) / RFU ARHGAP8 /// PRR5-ARHGAP8 (11727945_x_at) / Fold change /veh ARHGAP8 /// PRR5-ARHGAP8 (11727945_x_at) / RFU KRTAP5-7 /// NADSYN1 (11734609_at) / Fold change /veh KRTAP5-7 /// NADSYN1 (11734609_at) / RFU RASL12 (11751679_a_at) / Fold change /veh RASL12 (11751679_a_at) / RFU CDKN2B (11736163_a_at) / Fold change /veh CDKN2B (11736163_a_at) / RFU PRF1 (11729649_at) / Fold change /veh PRF1 (11729649_at) / RFU, ZNF638 /// ZNF638-IT1 / Fold change vs veh, ZNF638 /// ZNF638-IT1 / RFU, PANK3 / Fold change vs veh, PANK3 / RFU, SH3YL1 / Fold change vs veh, SH3YL1 / RFU, ZEB2 / Fold change vs veh, ZEB2 / RFU, NRIP1 / Fold change vs veh, NRIP1 / RFU, PTTG1IP / Fold change vs veh, PTTG1IP / RFU, CAPN2 / Fold change vs veh, CAPN2 / RFU, MED14 / Fold change vs veh, MED14 / RFU, SNORA58 / Fold change vs veh, SNORA58 / RFU, C1orf63 / Fold change vs veh, C1orf63 / RFU, LRRFIP1 / Fold change vs veh, LRRFIP1 / RFU, NDUFAF7 / Fold change vs veh, NDUFAF7 / RFU, SLC12A2 / Fold change vs veh, SLC12A2 / RFU, IBTK / Fold change vs veh, IBTK / RFU, ESF1 / Fold change vs veh, ESF1 / Fold change vs veh, TMEM50B / RFU, TAOK1 / Fold change vs veh, TAOK1 / RFU, ACBD3 / Fold change vs veh, ACBD3 / RFU, TMA16 / Fold change vs veh, TMA16 / RFU, RWDD3 / Fold change vs veh, RWDD3 / RFU, BCAT1 / Fold change vs veh, BCAT1 / RFU, EDEM3 / Fold change vs veh, EDEM3 / RFU, TMEM33 / Fold change vs veh, TMEM33 / RFU, WDR75 / Fold change vs veh, WDR75 / RFU, AHCTF1 / Fold change vs veh, AHCTF1 / RFU, TFRC / Fold change vs veh, TFRC / RFU, ZDHHC17 / Fold change vs veh, ZDHHC17 / RFU, NOM1 / Fold change vs veh, NOM1 / RFU, ARL8B / Fold change vs veh, ARL8B / RFU, ZBTB11 / Fold change vs veh, ZBTB11 / RFU, TAMM41 / Fold change vs veh, TAMM41 / RFU, KIAA1704 /// LOC100996395 / Fold change vs veh, KIAA1704 /// LOC100996395 / RFU, ING1 / Fold change vs veh, ING1 / RFU, TRMT61B / Fold change vs veh, TRMT61B / RFU, FUBP3 / Fold change vs veh, FUBP3 / RFU, TP53 / Fold change vs veh, TP53 / RFU, TNKS2 / Fold change vs veh, TNKS2 / RFU, ZFP14 / Fold change vs veh, ZFP14 / RFU, ACTR2 / Fold change vs veh, ACTR2 / RFU, PPP3R1 / Fold change vs veh, PPP3R1 / RFU, PIK3R1 / Fold change vs veh, PIK3R1 / RFU, HNRNPA1 / Fold change vs veh, HNRNPA1 / RFU, RNF170 / Fold change vs veh, RNF170 / RFU, ZNF28 / Fold change vs veh, ZNF28 / RFU, RNGTT / Fold change vs veh, RNGTT / RFU, OGT / Fold change vs veh, OGT / RFU, BRD1 / Fold change vs veh, BRD1 / RFU, MARS / Fold change vs veh, MARS / RFU, ZNF655 / Fold change vs veh, ZNF655 / RFU, FAHD1 / Fold change vs veh, FAHD1 / RFU, BDP1 / Fold change vs veh, BDP1 / RFU, LRRCC1 / Fold change vs veh, LRRCC1 / RFU, ARID1A / Fold change vs veh, ARID1A / RFU, ZNF146 / Fold change vs veh, ZNF146 / RFU, ZNF330 / Fold change vs veh, ZNF330 / RFU, GPN3 / Fold change vs veh, GPN3 / RFU, C9orf123 / Fold change vs veh, C9orf123 / RFU, N4BP2L2 / Fold change vs veh, N4BP2L2 / RFU, ARFIP1 / Fold change vs veh, ARFIP1 / RFU, FAM179B / Fold change vs veh, FAM179B / RFU, BCL10 / Fold change vs veh, BCL10 / RFU, UHRF1BP1L / Fold change vs veh, UHRF1BP1L / RFU, BET1 / Fold change vs veh, BET1 / RFU, CNOT2 / Fold change vs veh, CNOT2 / RFU, ZNF268 / Fold change vs veh, ZNF268 / Fold change vs veh, ZNF507 / RFU, DGCR2 / Fold change vs veh, DGCR2 / RFU, WDSUB1 / Fold change vs veh, WDSUB1 / Fold change vs veh, HSP90B1 /// MIR3652 / RFU, ADSS / Fold change vs veh, ADSS / RFU, GK / Fold change vs veh, GK / RFU, ZNF148 / Fold change vs veh, ZNF148 / RFU, TAF9 / Fold change vs veh, TAF9 / RFU, SLC1A5 / Fold change vs veh, SLC1A5 / RFU, SLMO2 / Fold change vs veh, SLMO2 / RFU, ABCC4 / Fold change vs veh, ABCC4 / RFU, LOC101060439 /// RAP1B / Fold change vs veh, LOC101060439 /// RAP1B / RFU, RFX7 / Fold change vs veh, RFX7 / RFU, GTPBP10 / Fold change vs veh, GTPBP10 / RFU, CNEP1R1 / Fold change vs veh, CNEP1R1 / RFU, BIVM-ERCC5 /// ERCC5 / Fold change vs veh, BIVM-ERCC5 /// ERCC5 / RFU, ILF3 / Fold change vs veh, ILF3 / RFU 11762660_at / Fold change /veh 11762660_at / RFU VCAN (11757783_s_at) / Fold change /veh VCAN (11757783_s_at) / RFU DDX43 (11728927_at) / Fold change /veh DDX43 (11728927_at) / RFU KRT8 (11758188_x_at) / Fold change /veh KRT8 (11758188_x_at) / RFU NKD1 (11759106_at) / Fold change /veh NKD1 (11759106_at) / RFU SRD5A1 (11742802_a_at) / Fold change /veh SRD5A1 (11742802_a_at) / RFU TPSAB1 /// TPSB2 (11721975_s_at) / Fold change /veh TPSAB1 /// TPSB2 (11721975_s_at) / RFU GSTM3 (11746129_a_at) / Fold change /veh GSTM3 (11746129_a_at) / RFU IL23R (11737362_x_at) / Fold change /veh IL23R (11737362_x_at) / RFU TMEM51 (11727254_a_at) / Fold change /veh TMEM51 (11727254_a_at) / RFU PIWIL2 (11732686_x_at) / Fold change /veh PIWIL2 (11732686_x_at) / RFU ORM1 (11744905_x_at) / Fold change /veh ORM1 (11744905_x_at) / RFU CCDC152 (11743942_at) / Fold change /veh CCDC152 (11743942_at) / RFU ECM1 (11717891_a_at) / Fold change /veh ECM1 (11717891_a_at) / RFU IL23R (11748794_a_at) / Fold change /veh IL23R (11748794_a_at) / RFU TNFAIP8L3 (11732012_x_at) / Fold change /veh TNFAIP8L3 (11732012_x_at) / RFU MBOAT4 (11741988_at) / Fold change /veh MBOAT4 (11741988_at) / RFU 11764193_at / Fold change /veh 11764193_at / RFU TMEM53 (11763286_at) / Fold change /veh TMEM53 (11763286_at) / RFU MAGEB2 (11727129_at) / Fold change /veh MAGEB2 (11727129_at) / RFU TMEM200A (11744735_a_at) / Fold change /veh TMEM200A (11744735_a_at) / RFU CCDC152 (11751479_a_at) / Fold change /veh CCDC152 (11751479_a_at) / RFU FAM211A (11726209_a_at) / Fold change /veh FAM211A (11726209_a_at) / RFU RGS16 (11746705_a_at) / Fold change /veh RGS16 (11746705_a_at) / RFU VCAN (11755009_s_at) / Fold change /veh VCAN (11755009_s_at) / RFU RHOB (11743442_s_at) / Fold change /veh RHOB (11743442_s_at) / RFU RGS16 (11720943_a_at) / Fold change /veh RGS16 (11720943_a_at) / RFU RGS16 (11720944_at) / Fold change /veh RGS16 (11720944_at) / RFU, VPS4B / Fold change vs veh, VPS4B / RFU, CREB1 / Fold change vs veh, CREB1 / RFU, DNAJC13 / Fold change vs veh, DNAJC13 / RFU, GNAQ / Fold change vs veh, GNAQ / RFU, CDK5R1 / Fold change vs veh, CDK5R1 / RFU, ZRANB3 / Fold change vs veh, ZRANB3 / RFU, CUL4A / Fold change vs veh, CUL4A / RFU, CCNY / Fold change vs veh, CCNY / RFU, UFL1 / Fold change vs veh, UFL1 / RFU, COG3 / Fold change vs veh, COG3 / RFU, DIAPH2 / Fold change vs veh, DIAPH2 / RFU, SKA2 / Fold change vs veh, SKA2 / RFU, AFF3 / Fold change vs veh, AFF3 / RFU, LMF1 / Fold change vs veh, LMF1 / RFU, IPO11 / Fold change vs veh, IPO11 / RFU, DFFB / Fold change vs veh, DFFB / RFU, FOXP1 / Fold change vs veh, FOXP1 / RFU, CARD8 / Fold change vs veh, CARD8 / RFU, STRN3 / Fold change vs veh, STRN3 / RFU, ADK / Fold change vs veh, ADK / RFU, RASSF2 / Fold change vs veh, RASSF2 / RFU, WIPF1 / Fold change vs veh, WIPF1 / RFU, LARP1B / Fold change vs veh, LARP1B / RFU, RASA1 / Fold change vs veh, RASA1 / RFU, RB1 / Fold change vs veh, RB1 / RFU, PPFIA1 / Fold change vs veh, PPFIA1 / RFU, MAT2A / Fold change vs veh, MAT2A / RFU, CCT5 / Fold change vs veh, CCT5 / RFU, WDR92 / Fold change vs veh, WDR92 / RFU, CUX1 / Fold change vs veh, CUX1 / RFU, TTC7A / Fold change vs veh, TTC7A / RFU, TMEM135 / Fold change vs veh, TMEM135 / RFU, DEPTOR / Fold change vs veh, DEPTOR / RFU, CPM / Fold change vs veh, CPM / RFU, DNAJB6 / Fold change vs veh, DNAJB6 / RFU, CACNA2D3 / Fold change vs veh, CACNA2D3 / RFU, DTX4 / Fold change vs veh, DTX4 / RFU, TFCP2 / Fold change vs veh, TFCP2 / RFU, GMCL1 /// GMCL1P1 / Fold change vs veh, GMCL1 /// GMCL1P1 / RFU, AEBP2 / Fold change vs veh, AEBP2 / RFU, SNHG1 /// SNORD22 /// SNORD25 /// SNORD26 /// SNORD27 /// SNORD28 /// SNORD29 /// SNORD31 / Fold change vs veh, SNHG1 /// SNORD22 /// SNORD25 /// SNORD26 /// SNORD27 /// SNORD28 /// SNORD29 /// SNORD31 / Fold change (Aza/veh), C12orf56 (ProbeSet 11735607_a_at) / Fold change (ACY-1035/veh), C12orf56 (ProbeSet 11735607_a_at) / Fold change (Aza/veh), FGFR1OP (ProbeSet 11751329_s_at) / Fold change (ACY-1035/veh), FGFR1OP (ProbeSet 11751329_s_at) / Fold change (Aza/veh), VPS36 (ProbeSet 11739960_a_at) / Fold change (ACY-1035/veh), VPS36 (ProbeSet 11739960_a_at) / RFU SYPL1 (11715823_x_at) / Fold change /veh SYPL1 (11715823_x_at) / RFU IGFBP7 (11715501_s_at) / Fold change /veh IGFBP7 (11715501_s_at) / RFU REEP3 (11722064_at) / Fold change /veh REEP3 (11722064_at) / RFU IGLL1 (11728026_x_at) / Fold change /veh IGLL1 (11728026_x_at): dose or concentration left out as unconfirmed. The note with it: ProbeSet 11743567_s_at; LIST B.

As for `Nc1ncn([C@@H]2O[C@H](CO)[C@@H](O)[C@H]2O)c(=O)n1` [azacitidine], the “Fold change vs veh, ACBD3” value is recorded as 1.04.
